Laboratory results taken from US20090118331A1, “Use of Lobeline Epimers in the Treatment of Central Nervous System Diseases, Pathologies, and Drug Abuse” (priority 2007, published 2009).

Tests used:
in vivo = assay: in vivo
Experimental: Here, serial doses of lobeline were administered to male and female rats intravenously, subcutaneously or orally, and the pharmacokinetic profiles of the parent lobeline and its epimer were monitored in plasma.

[1] = Lobeline epimerization in pH 7.4 phosphate buffer control; conditions: after 2 hours, with impurity
[2] = Lobeline conversion to epimer in the HEPES buffer system used at 25° C. in the [^3H]DTBZ binding study (HPLC); type: physicochemical; conditions: for Epimer %: [^3H]DTBZ binding buffer, 25° C.
Experimental: The initial dissolution of lobeline in water was followed by a 1:1 dilution of this stock solution in the appropriate HEPES buffer system, incubation at the prescribed temperature, and HPLC assay of each epimer and potential degradants over 2 hour incubation.
After 2 hours, the 25° C.

[3] = Lobeline conversion to epimer in the buffer system used at 37° C. in the VMAT2 uptake study (HPLC); type: physicochemical; conditions: for Epimer %: VMAT2 uptake buffer, 37° C.
[4] = Lobeline conversion to epimer in deionized water (HPLC); type: physicochemical
Experimental: Extensive in vitro studies on the epimerization of lobeline were conducted in a variety of aqueous media. […] The concentration of the lobeline solution (500 mL) was ca. 0.5 mg/mL, and 1.5 mL aliquot parts were removed in triplicate at each time point and analyzed by HPLC. Corresponding pH measurements were performed with a Coming Model 240 pH meter.

[5] = male, rat, in vivo, sc, 3 mg/kg

CN1[C@H](CC(=O)c2ccccc2)CCC[C@H]1C[C@H](O)c1ccccc1 (single isomer, unassigned; epimer 2) [Epimer, 2-[6S-(2S-hydroxy-2-phenyl-ethyl)-1-methyl-piperidin-2S-yl]-1-phenyl-ethanone]
AUC(0-inf) (in vivo; [5]): 109 ng·h/mL | AUC(0-t) (in vivo; [5]): 108 ng·h/mL | Cmax (in vivo; [5]): 54.4 ng/mL | MRT last (in vivo; [5]): 1.45 h | Tmax (in vivo; [5]): 30 min | half-life (in vivo; [5]): 66.6 min | time after lobeline administration within which significant epimer concentrations were achieved in plasma (in vivo; rats, irrespective of dose or route): 15 to 30 min | component content of solution ([1]; pH 7.4 phosphate buffer control, same temperature as 25° C. binding buffer): 35% | component content of solution ([1]; phosphate buffer control for the 37° C. VMAT2 uptake buffer): 36% | final component concentration (as a function of the area under the curve) ([2]; HEPES [^3H]DTBZ binding buffer, after 2 hours at 25° C.): 17% | Epimer % ([2]; T0, sample age 0:01): 1.54% | Epimer % ([2]; T5, sample age 0:06): 2.16% | Epimer % ([2]; T10, sample age 0:10): 3.34% | Epimer % ([2]; T15, sample age 0:15): 4.55% | Epimer % ([2]; T20, sample age 0:20): 5.27% | Epimer % ([2]; T25, sample age 0:25): 5.91% | Epimer % ([2]; T30, sample age 0:31): 7.18% | Epimer % ([2]; T35, sample age 0:35): 7.30% | Epimer % ([2]; T40, sample age 0:40): 8.66% | Epimer % ([2]; T45, sample age 0:45): 9.31% | Epimer % ([2]; T50, sample age 0:50): 9.94% | Epimer % ([2]; T55, sample age 0:55): 10.2% | Epimer % ([2]; T60, sample age 1:00): 10.9% | Epimer % ([2]; T70, sample age 1:10): 11.9% | Epimer % ([2]; T80, sample age 1:20): 13.1% | Epimer % ([2]; T90, sample age 1:31): 14.1% | Epimer % ([2]; T100, sample age 1:40): 15.2% | Epimer % ([2]; T110, sample age 1:50): 16.1% | Epimer % ([2]; T120, sample age 2:01): 17.0% | component content of solution ([3]; 37° C. uptake buffer with ATP-Mg2+ cofactor reduced from 2 mM to 0.4 mM, after 2 hours, with impurity): 33% | final component concentration (as a function of the area under the curve) ([3]; VMAT2 uptake buffer (HEPES), 2 hour incubation at 37° C.): 30% | Epimer % ([3]; T0, sample age 0:01): 1.76% | Epimer % ([3]; T5, sample age 0:05): 3.34% | Epimer % ([3]; T10, sample age 0:10): 5.47% | Epimer % ([3]; T15, sample age 0:15): 8.62% | Epimer % ([3]; T25, sample age 0:25): 13.2% | Epimer % ([3]; T30, sample age 0:30): 14.9% | Epimer % ([3]; T35, sample age 0:35): 16.2% | Epimer % ([3]; T40, sample age 0:40): 17.7% | Epimer % ([3]; T45, sample age 0:45): 18.9% | Epimer % ([3]; T50, sample age 0:50): 20.1% | Epimer % ([3]; T55, sample age 0:55): 21.0% | Epimer % ([3]; T60, sample age 1:00): 22.1% | Epimer % ([3]; T70, sample age 1:10): 24.3% | Epimer % ([3]; T80, sample age 1:20): 26.1% | Epimer % ([3]; T90, sample age 1:31): 26.9% | Epimer % ([3]; T100, sample age 1:40): 28.0% | Epimer % ([3]; T110, sample age 1:50): 29.2% | Epimer % ([3]; T120, sample age 2:00): 30.3% | % Epimer (Mean ± SD) ([4]; Solution 1 (Lobeline in “fresh” DI Water), time 0, pH 6.02): 0.83% | % Epimer (Mean ± SD) ([4]; Solution 1 (“fresh” DI Water), 15 min, pH 6.03-6.24): 0.83 ± 0.054% | % Epimer (Mean ± SD) ([4]; Solution 1 (“fresh” DI Water), 30 min, pH 6.02-6.24): 0.99 ± 0.164% | % Epimer (Mean ± SD) ([4]; Solution 1 (“fresh” DI Water), 45 min, pH 6.13-6.37): 0.95 ± 0.144% | % Epimer (Mean ± SD) ([4]; Solution 1 (“fresh” DI Water), 1 h, pH 6.26-6.52): 1.00 ± 0.196% | % Epimer (Mean ± SD) ([4]; Solution 1 (“fresh” DI Water), 80 min, pH 6.19-6.50): 1.46 ± 0.112% | % Epimer (Mean ± SD) ([4]; Solution 1 (“fresh” DI Water), 100 min, pH 6.16-6.50): 1.50 ± 0.139% | % Epimer (Mean ± SD) ([4]; Solution 1 (“fresh” DI Water), 2 h, pH 5.63-5.88): 1.58 ± 0.599% | % Epimer (Mean ± SD) ([4]; Solution 2 (Lobeline in “8-h” DI Water), time 0, pH 7.87): 1.03% | % Epimer (Mean ± SD) ([4]; Solution 2 (“8-h” DI Water), 15 min, pH 7.78-8.21): 0.66 ± 0.273% | % Epimer (Mean ± SD) ([4]; Solution 2 (“8-h” DI Water), 30 min, pH 7.58-7.85): 0.52 ± 0.214% | % Epimer (Mean ± SD) ([4]; Solution 2 (“8-h” DI Water), 45 min, pH 7.66-7.68): 0.65 ± 0.056% | % Epimer (Mean ± SD) ([4]; Solution 2 (“8-h” DI Water), 1 h, pH 6.84-7.11): 0.80 ± 0.087% | % Epimer (Mean ± SD) ([4]; Solution 2 (“8-h” DI Water), 80 min, pH 6.53-6.79): 0.90 ± 0.150% | % Epimer (Mean ± SD) ([4]; Solution 2 (“8-h” DI Water), 100 min, pH 6.24-6.51): 1.01 ± 0.207% | % Epimer (Mean ± SD) ([4]; Solution 2 (“8-h” DI Water), 2 h, pH 6.21-6.49): 1.22 ± 0.257% | ratio of epimer to lobeline obtained in vitro ([4]; in vitro with water at pH 7): approximately 0.5 | change in epimer concentration ([4]; lobeline dissolved in deionized water, over a 2-h period at 25° C.): < 1%
